Patent US10954287B2, “Ras binding peptides and methods of use” (Ra Pharmaceuticals, Inc., priority 2016, dated 2021)
*1 amine or outer side, *2 acyl side, *3 side chain or, on linkers, in order; H or OH if unused. Where a SMILES comes first, the peptide text is derived from it. [ ]: non-standard residue; d: D form. ξ: configuration not given here. DAPTZAC2 = (S)-3-(4-(2-acrylamidoethyl)-1H-1,2,3-triazol-1-yl)-2-aminopropanoic acid, C=CC(=O)NCCc1cn(C[C@H](N[*:1])C(=O)[*:2])nn1; Trp(7-aza) = N[C@@H](Cc1c[nH]c2ncccc12)C(=O)O; NMePhe(4-F) = CN[C@@H](Cc1ccc(F)cc1)C(=O)O; Phg = N[C@H](C(=O)O)c1ccccc1; Tle = CC(C)(C)[C@H](N)C(=O)O; ξPhg = NC(C(=O)O)c1ccccc1; NMeA = CN[C@@H](C)C(=O)O; Pra = C#CC[C@H](N)C(=O)O; Nva = CCC[C@H](N)C(=O)O; AEEA = NCCOCCOCC(=O)O; Ava = NCCCCC(=O)O; Sar = CNCC(=O)O

Test system: GMPPNP-loaded H-Ras or GTP-loaded K-Ras
Assay: Fluorescence polarization competition assay with TAMRA-labeled probe R4007
Format: binding, human
Details: 120 nM Ras, 30 nM probe R4007, 60 minutes at room temperature; read-out: Probe displacement (nM IC50)
Procedure: R4000 was evaluated for competition with a TAMRA labeled probe (R4007) based on peptide R4000. The assay was performed in 384-well black, non-binding plates (Greiner Bio-One, Monroe, N.C.). GMPPNP-loaded H-Ras or GTP-loaded K-Ras, diluted in FP assay buffer (20 mM Tris-HCl, pH 7.5, 50 mM NaCl, 5 mM MgCl2, 1 mM EDTA, 0.002% Triton-X-100) for a final concentration of 120 nM was incubated with 30 nM R4007 for 20 minutes at room temperature. R4000 was serially diluted, added to the assay and incubated for 60 minutes at room temperature. Fluorescence polarization was detected with a SpectraMax Paradigm plate reader (Molecular Devices, Sunnyvale, Calif.) using the Rhodamine FP detection cartridge (535 nm/595 nm). Data was analyzed using GraphPad Prism and Ki determined using One Site Ki Curve fitting model.
Peptides were evaluated for competition with R4007, a probe consisting of TAMRA-labeled R4000, using a fluorescence polarization (FP) competition assay. The assay was performed in 384-well black, non-binding plates (Greiner Bio-One, Monroe, N.C.). GMPPNP-loaded H-Ras or GTP- loaded K-Ras, diluted in FP assay buffer (20 mM Tris-HCl, pH 7.5, 50 mM NaCl, 5 mM MgCl2, 1 mM EDTA, 0.002% Triton-X-100) for a final concentration of 120 nM was incubated with 30 nM probe for 20 minutes at room temperature. Peptides were serially diluted, added to the assay and incubated for 60 minutes at room temperature. Fluorescence was detected with a SpectraMax Paradigm plate reader (Molecular Devices, Sunnyvale, Calif.) using the Rhodamine FP detection cartridge (535 nm/595 nm). Data was analyzed and Ki determined using a One Site Ki Curve fitting model. Percent inhibition for each data point was calculated relative to the maximal binding in test compound-free control wells (showing no probe displacement) and Ras-free control wells (showing no probe binding) and the half-maximal inhibitory concentration (IC50), based on probe displacement, was determined.

| Molecule | IC50 |
| --- | --- |
| C#CC[C@@H]1NC(=O)CN(C)C(=O)[C@H](Cc2ccc(F)cc2)N(C)C(=O)[C@H](Cc2ccc(O)cc2)NC(=O)[C@H](Cc2c[nH]c3ncccc23)NC(=O)[C@H](c2ccccc2)NC(=O)[C@H](C)N(C)C(=O)[C@H](Cc2c[nH]cn2)NC(=O)[C@H](CCCCN)NC(=O)[C@H](C(C)(C)C)NC(=O)[C@H](Cc2ccc(O)cc2)NC(=O)COCCOCCNC1=O [Compound R4130, PEG1*-TYR-TBG-LYS-HIS-NMA-PHG-7AW-TYR-MFF-SAR-PRG*] (cyclo([AEEA]Y[Tle]KH[NMeA][Phg][Trp(7-aza)]Y[NMePhe(4-F)][Sar][Pra])) | 268 nM |
| CCC[C@H](NC(C)=O)C(=O)N[C@H]1CSCc2cccc(c2)CSC[C@@H](C(N)=O)NC(=O)CN(C)C(=O)[C@H](Cc2ccc(F)cc2)N(C)C(=O)[C@H](Cc2ccc(O)cc2)NC(=O)[C@H](Cc2c[nH]c3ncccc23)NC(=O)[C@H](c2ccccc2)NC(=O)[C@H](C)N(C)C(=O)[C@H](CN)NC(=O)[C@H](C)NC(=O)[C@H](C(C)(C)C)NC(=O)[C@H](Cc2ccc(O)cc2)NC1=O (relative stereo) [Compound R4141, ACE-NVA-CYS*-TYR-TBG-ALA-DAP-NMA-PHG-7AW-TYR-MFF-SAR-CYS*-NH2] | 695 nM |
| CCC[C@H](NC(C)=O)C(=O)N[C@H]1CSCc2cccc(c2)CSC[C@@H](C(N)=O)NC(=O)[C@H](CO)N(C)C(=O)[C@H](Cc2ccc(F)cc2)N(C)C(=O)[C@H](Cc2ccc(O)cc2)NC(=O)[C@H](Cc2c[nH]c3ncccc23)NC(=O)[C@H](c2ccccc2)NC(=O)[C@H](C)N(C)C(=O)[C@H](Cc2c[nH]cn2)NC(=O)[C@H](CCCCN)NC(=O)[C@H](C(C)(C)C)NC(=O)[C@H](Cc2ccc(O)cc2)NC1=O (relative stereo) [Compound R4118, ACE-NVA-CYS*-TYR-TBG-LYS-HIS-NMA-PHG-7AW-TYR-MFF-NMS-CYS*-NH2] | 51.5 nM |
| CCC[C@H](NC(C)=O)C(=O)N[C@H]1CSCc2cccc(c2)CSC[C@@H](C(=O)NCC(=O)NCC(=O)NCC(=O)N[C@@H](CS)C(=O)N[C@H](C(=O)N[C@H](C(=O)N[C@@H](CCSC)C(N)=O)[C@@H](C)CC)C(C)C)NC(=O)CN(C)C(=O)[C@H](Cc2ccc(F)cc2)N(C)C(=O)[C@H](Cc2ccc(O)cc2)NC(=O)[C@H](Cc2c[nH]c3ncccc23)NC(=O)[C@H](c2ccccc2)NC(=O)[C@H](C)N(C)C(=O)[C@H](Cc2c[nH]cn2)NC(=O)[C@H](CCCCN)NC(=O)[C@H](C(C)(C)C)NC(=O)[C@H](Cc2ccc(O)cc2)NC1=O (relative stereo) [Compound R4127, ACE-NVA-CYS*-TYR-TBG-LYS-HIS-NMA-PHG-7AW-TYR-MFF-SAR-CYS*-GLY-GLY-GLY-CYS-VAL-ILE-MET-NH2] | 148 nM |
| CCC[C@H](NC(C)=O)C(=O)N[C@H]1CSCc2cccc(c2)CSC[C@@H](C(N)=O)NC(=O)CN(C)C(=O)[C@H](Cc2ccc(F)cc2)N(C)C(=O)[C@H](Cc2ccc(O)cc2)NC(=O)[C@H](Cc2c[nH]c3ncccc23)NC(=O)[C@H](C2CCCCC2)NC(=O)[C@H](C)N(C)C(=O)[C@H](Cc2c[nH]cn2)NC(=O)[C@H](CCCCN)NC(=O)[C@H](C(C)(C)C)NC(=O)[C@H](Cc2ccc(O)cc2)NC1=O (relative stereo) [Compound R4149, ACE-NVA-CYS*-TYR-TBG-LYS-HIS-NMA-CHG-7AW-TYR-MFF-SAR-CYS*-NH2] | 6260 nM |
| CCC[C@H](NC(C)=O)C(=O)N[C@H]1CSCc2cccc(c2)CSC[C@@H](C(=O)NCC(=O)NCC(=O)NCC(=O)N[C@@H](CS)C(=O)N[C@@H](C)C(=O)N[C@H](C(=O)N[C@@H](CC(C)C)C(N)=O)[C@@H](C)CC)NC(=O)CN(C)C(=O)[C@H](Cc2ccc(F)cc2)N(C)C(=O)[C@H](Cc2ccc(O)cc2)NC(=O)[C@H](Cc2c[nH]c3ncccc23)NC(=O)[C@H](c2ccccc2)NC(=O)[C@H](C)N(C)C(=O)[C@H](Cc2c[nH]cn2)NC(=O)[C@H](CCCCN)NC(=O)[C@H](C(C)(C)C)NC(=O)[C@H](Cc2ccc(O)cc2)NC1=O (relative stereo) [Compound R4120, ACE-NVA-CYS*-TYR-TBG-LYS-HIS-NMA-PHG-S7AW-TYR-MFF-AR-CYS*-GLY-GLY-GLY-CYS-ALA-ILE-LEU-NH2] | 65.7 nM |
| C=CC(=O)NCCC[C@H]1C(=O)N[C@@H](c2ccccc2)C(=O)N[C@@H](Cc2c[nH]c3ncccc23)C(=O)N[C@@H](Cc2ccc(O)cc2)C(=O)N(C)[C@@H](Cc2ccc(F)cc2)C(=O)N(C)CC(=O)N[C@H](C(N)=O)CSCc2cccc(c2)CSC[C@H](NC(=O)[C@H](CCC)NC(C)=O)C(=O)N[C@@H](Cc2ccc(O)cc2)C(=O)N[C@@H](C(C)(C)C)C(=O)N[C@@H](C)C(=O)N[C@@H](Cc2c[nH]cn2)C(=O)N1C (relative stereo) [Compound R4142, ACE-NVA-CYS*-TYR-TBG-ALA-HIS-MORAC-PHG-7AW-TYR-MFF-SAR-CYS*-NH2] | 1240 nM |
| C=CC(=O)NCCC[C@@H]1NC(=O)[C@H](C)NC(=O)[C@H](C(C)(C)C)NC(=O)[C@H](Cc2ccc(O)cc2)NC(=O)[C@@H](NC(=O)[C@H](CCC)NC(C)=O)CSCc2cccc(c2)CSC[C@@H](C(N)=O)NC(=O)CN(C)C(=O)[C@H](Cc2ccc(F)cc2)N(C)C(=O)[C@H](Cc2ccc(O)cc2)NC(=O)[C@H](Cc2c[nH]c3ncccc23)NC(=O)[C@H](c2ccccc2)NC(=O)[C@H](C)N(C)C1=O (relative stereo) [Compound R4122, ACE-NVA-CYS*-TYR-TBG-ALA-ORAC-NMA-PHG-7AW-TYR-MFF-SAR-CYS*-NH2] | 77.1 nM |
| CCC[C@H](NC(C)=O)C(=O)N[C@H]1CSCc2cccc(c2)CSC[C@@H](C(=O)O)NC(=O)CN(C)C(=O)[C@H](Cc2ccc(F)cc2)N(C)C(=O)[C@H](Cc2ccc(O)cc2)NC(=O)[C@H](Cc2c[nH]c3ncccc23)NC(=O)[C@H](c2ccccc2)NC(=O)[C@H](C)N(C)C(=O)[C@H](Cc2c[nH]cn2)NC(=O)[C@H](CCCCNC(CC(C)C)=C2C(=O)CC(C)(C)CC2=O)NC(=O)[C@H](C(C)(C)C)NC(=O)[C@H](Cc2ccc(O)cc2)NC1=O (relative stereo) [Compound R4135, ACE-NVA-CYS*-TYR-TBG-LYS-(DDE)-HIS-NMA-PHG-7AW-TYR-MFF-SAR-CYS*] | 364 nM |
| CCC[C@H](NC(C)=O)C(=O)N[C@H]1CSCc2cccc(c2)CSC[C@@H](C(=O)N[C@H](CO)C(=O)N[C@H](C)C(=O)N[C@@H](CCCCN)C(=O)N[C@@H](CSSC(C)(C)C)C(=O)N[C@H](C(=O)N[C@H](C(=O)N[C@@H](CCSC)C(=O)O)[C@@H](C)CC)C(C)C)NC(=O)CN(C)C(=O)[C@H](Cc2ccc(F)cc2)N(C)C(=O)[C@H](Cc2ccc(O)cc2)NC(=O)[C@H](Cc2c[nH]c3ncccc23)NC(=O)[C@H](c2ccccc2)NC(=O)[C@H](C)N(C)C(=O)[C@H](Cc2c[nH]cn2)NC(=O)[C@H](CCCCN)NC(=O)[C@H](C(C)(C)C)NC(=O)[C@H](Cc2ccc(O)cc2)N(C)C1=O (relative stereo) [Compound R4129, ACE-NVA-CYS*-NMY-TBG-LYS-HIS-NMA-PHG-7AW-TYR-MFF-SAR-CYS*-DSER-DALA-LYS-TDSPA-VAL-ILE-MET] | 227 nM |
| CCC[C@H](NC(C)=O)C(=O)N[C@H]1CSCc2cccc(c2)CSC[C@@H](C(N)=O)NC(=O)[C@H](C)N(C)C(=O)[C@H](Cc2ccc(F)cc2)N(C)C(=O)[C@H](Cc2ccc(O)cc2)NC(=O)[C@H](Cc2c[nH]c3ncccc23)NC(=O)[C@H](c2ccccc2)NC(=O)[C@H](C)N(C)C(=O)[C@H](Cc2c[nH]cn2)NC(=O)[C@H](CCCCN)NC(=O)[C@H](C(C)(C)C)NC(=O)[C@H](Cc2ccc(O)cc2)NC1=O (relative stereo) [Compound R4101, ACE-NVA-CYS*-TYR-TBG-LYS-HIS-NMA-PHG-7AW-TYR-MFF-NMA-CYS*-NH2] | 1.45 nM |
| ACE-NVA-SER-TYR-TBG-ALA-DAPTZAC2-NMA-RPHG-7AW-TYR-MFF-SAR-SER-NH2 (Ac-[Nva]SY[Tle]A[DAPTZAC2][NMeA][ξPhg][Trp(7-aza)]Y[NMePhe(4-F)][Sar]S-NH2) [Compound R4151, linear] | 12200 nM |
| C#CC[C@@H]1NC(=O)CN(C)C(=O)[C@H](Cc2ccc(F)cc2)N(C)C(=O)[C@H](Cc2ccc(O)cc2)NC(=O)[C@H](Cc2c[nH]c3ncccc23)NC(=O)[C@H](c2ccccc2)NC(=O)[C@H](C)N(C)C(=O)[C@H](Cc2c[nH]cn2)NC(=O)[C@H](CCCCN)NC(=O)[C@H](C(C)(C)C)NC(=O)[C@H](Cc2ccc(O)cc2)NC(=O)CCCCNC1=O [Compound R4128, APA*-TYR-TBG-LYS-HIS-NMA-PHG-7AW-TYR-MFF-SAR-PRG*] (cyclo([Ava]Y[Tle]KH[NMeA][Phg][Trp(7-aza)]Y[NMePhe(4-F)][Sar][Pra])) | 215 nM |
